Results as given in article PMC3914206.

Tests used:
panel of 442 kinases [1] = molecular target: T1, panel of 442 kinases (Homo sapiens, UniProt Q9H093); format: binding; conditions: kinase SNARK; compound concentration 10 µM
T1 construct: purchased KINOMEscan
T1 sequence (Q9H093 1-628): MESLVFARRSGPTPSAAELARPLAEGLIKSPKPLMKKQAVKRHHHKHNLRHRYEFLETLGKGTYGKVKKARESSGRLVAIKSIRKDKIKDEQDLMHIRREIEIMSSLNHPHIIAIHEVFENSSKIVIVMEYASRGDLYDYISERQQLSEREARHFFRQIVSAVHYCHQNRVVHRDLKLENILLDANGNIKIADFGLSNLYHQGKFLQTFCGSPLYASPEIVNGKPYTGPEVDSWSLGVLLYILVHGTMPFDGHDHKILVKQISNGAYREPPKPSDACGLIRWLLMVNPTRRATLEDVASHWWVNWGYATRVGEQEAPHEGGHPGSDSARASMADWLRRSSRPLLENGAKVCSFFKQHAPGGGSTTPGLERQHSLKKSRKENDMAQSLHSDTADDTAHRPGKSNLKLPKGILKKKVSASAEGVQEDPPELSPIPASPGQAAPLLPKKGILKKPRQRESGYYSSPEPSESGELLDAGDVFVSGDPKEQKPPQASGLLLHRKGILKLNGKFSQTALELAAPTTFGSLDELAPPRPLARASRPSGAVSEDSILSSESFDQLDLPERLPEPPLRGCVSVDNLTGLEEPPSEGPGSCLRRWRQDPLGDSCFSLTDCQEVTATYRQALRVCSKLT
Description: (§1) We assessed the selectivity of members of this scaffold using the KINOMEscan methodology across a near comprehensive panel of 442 kinases [[18,27]].

panel of 442 kinases [2] = molecular target: T2, panel of 442 kinases (Homo sapiens, UniProt Q8IW41); format: binding; conditions: Compound Concentration 10 µM
T2 construct: purchased KINOMEscan
T2 sequence (Q8IW41 1-473): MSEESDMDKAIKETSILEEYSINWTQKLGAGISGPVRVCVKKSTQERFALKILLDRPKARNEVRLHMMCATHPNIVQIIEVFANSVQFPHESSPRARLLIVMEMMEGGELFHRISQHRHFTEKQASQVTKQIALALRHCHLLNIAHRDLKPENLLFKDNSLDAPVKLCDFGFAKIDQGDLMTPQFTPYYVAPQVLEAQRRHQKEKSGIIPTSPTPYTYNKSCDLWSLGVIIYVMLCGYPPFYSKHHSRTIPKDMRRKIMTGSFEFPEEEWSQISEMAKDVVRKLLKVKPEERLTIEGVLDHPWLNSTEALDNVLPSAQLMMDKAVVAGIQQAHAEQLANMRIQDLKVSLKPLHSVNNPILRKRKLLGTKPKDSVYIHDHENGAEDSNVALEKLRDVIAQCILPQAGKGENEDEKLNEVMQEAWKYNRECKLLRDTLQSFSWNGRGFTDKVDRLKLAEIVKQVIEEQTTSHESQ
Description: as §1

SMILES: CCOc1cc(C(=O)N2CCC(N3CCN(C)CC3)CC2)ccc1Nc1ncc2c(n1)N(C1CCCC1)c1ccccc1C(=O)N2C [Compound 26]
- % Ctrl, SNARK (panel of 442 kinases [1]): 96 % Ctrl
- KINOMEscan: MAPKAPK5 (panel of 442 kinases [2]): 100

SMILES: COc1cc(C(=O)N2CCC(N3CCN(C)CC3)CC2)ccc1Nc1ncc2c(n1)N(C1CCCC1)c1ccccc1C(=O)N2C [Compound 25, 11-cyclopentyl-2-((2-methoxy-4-(4-(4-methylpiperazin-1-yl)piperidine-1-carbonyl)phenyl)amino)-5-methyl-5H-benzo[e]pyrimido[5,4-b][1,4]diazepin-6(11H)-one]
- % Ctrl, SNARK (panel of 442 kinases [1]): 100 % Ctrl
- KINOMEscan: MAPKAPK5 (panel of 442 kinases [2]): 96

SMILES: COc1cc(C(=O)N2CCC(N3CCN(C)CC3)CC2)ccc1Nc1ncc2c(n1)N1CCc3cccc(c31)C(=O)N2C [Compound 24]
- % Ctrl, SNARK (panel of 442 kinases [1]): 74 % Ctrl

SMILES: COc1cc(C(=O)N2CCC(N3CCN(C)CC3)CC2)ccc1Nc1ncc2c(n1)N(C)c1ccccc1C(=O)N2C [15 (LRRK2-IN-1)]
- % Ctrl, SNARK (panel of 442 kinases [1]): 47 % Ctrl
- KINOMEscan: MAPKAPK5 (panel of 442 kinases [2]): 97
